For 61 compounds, EC50 results are on record in patent US9809602B2, “Compounds for treating viral infections” (INSTITUT PASTEUR KOREA, priority 2014, dated 2017).

Usually pEC50 stands for −log10 of the EC50, conventionally taken in molar units. Read a low pEC50 as a high EC50.

pEC50: −log10 of the molar value. Some results are limits rather than exact numbers.

The subject of the first assay is genotype 1/2 chimeric cell culture derived HCV (HCVcc). Description: Genotype 1/2 chimeric HCVcc assay (nano-luciferase, HCV replication). The format is cell-based. The conditions noted are these: Hepatitis C virus. Put shortly:
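Huh-7.5 cells (2400/well) pretreated 2 h with serially diluted compound, then infected with nano-luciferase genotype 1a/2a (JFH-1) chimeric HCVcc. At 72 h post infection, nano-luciferase reported replication and cellular ATP reported cytotoxicity; EC50 and CC50 by non-linear regression.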
As for `O=C(NCCCN1CCC(C2CCCCC2)CC1)c1ccc(Oc2ccccc2)cc1` [Compound 1071], the negative logarithm of the EC50 (pEC50) is 5.00 to 6.00.

On to `O=S(=O)(NCCCN1CCC(N2CCCCC2)CC1)c1ccc(Oc2ccc(C(F)(F)F)cc2)cc1` [Compound 1094], for which the negative logarithm of the EC50 (pEC50) was 6.00 to 7.00. `O=C(NCCCN1CCC(N2CCCCC2)CC1)c1ccc(-c2ccc(F)cc2F)cc1` [Compound 1134] had a pEC50 of 6.00 to 7.00.

As for `O=C(Nc1cccc(N2CCC(N3CCCCC3)CC2)c1)c1ccc(Oc2ccccc2)cc1` [Compound 1049], the negative logarithm of the EC50 (pEC50) is 6.00 to 7.00.

`O=C(NCCCN1CCC(N2CCCCC2)CC1)c1ccc(-c2ccc(C(F)(F)F)cc2)c(Cl)c1` [Compound 1085] had a pEC50 of 6.00 to 7.00. Compound `O=C(NCCCN1CCC(N2CCCCC2)CC1)c1ccccc1-c1ccccc1` [Compound 1011] showed a pEC50 below 5.00. Still for that read-out and setting: with `O=C(NCCCN1CCC(N2CCCCC2)CC1)c1ccc(Oc2ccc(F)cc2)cc1` [Compound 1033] the figure was 5.00 to 6.00.

For the compound `O=C(c1ccc(Oc2ccccc2)cc1)N1CCC(C(=O)N2CCC(N3CCCCC3)CC2)C1` (stereo not shown) [Compound 1054], the negative logarithm of the EC50 (pEC50) was below 5.00. The same measure, in the same setting: in the case of `N#Cc1cccc(-c2ccc(C(=O)NCCCN3CCC(N4CCCCC4)CC3)cc2)c1` [Compound 1150] it was 6.00 to 7.00; in that of `O=S(=O)(NCCCN1CCC(N2CCCCC2)CC1)c1ccc(-c2ccccc2)cc1` [Compound 1090], 6.00 to 7.00; in that of `O=C(NCCCN1CCC(N2CCCCC2)CC1)c1ccc(Oc2ccc(Br)cc2)cc1` [Compound 1034], 5.00 to 6.00. Still for that read-out and setting: in the case of `COc1cccc(Oc2ccc(C(=O)NCCCN3CCC(N4CCCCC4)CC3)cc2)c1` [Compound 1064] it was below 5.00; in that of `O=C(NCCCN1CCC(N2CCCCC2)CC1)c1ccc(-c2ccc(S(=O)(=O)N3CCOCC3)cc2)cc1` [Compound 1144], 5.00 to 6.00; in that of `N#Cc1cc(NC(=O)CCCN2CCC(N3CCCCC3)CC2)ccc1-c1ccc(C(F)(F)F)cc1` [Compound 1159], 6.00 to 7.00.

As to `COc1ccc(-c2ccc(S(=O)(=O)NCCCN3CCC(N4CCCCC4)CC3)cc2)cc1` [Compound 1097], the negative logarithm of the EC50 (pEC50) is 6.00 to 7.00. `O=C(NCCCN1CCC(N2CCCCC2)CC1)c1ccc(Oc2ccc(Cl)cc2)cc1` [Compound 1109] had a pEC50 of 5.00 to 6.00. Same read-out and setting: with `O=C(NCCCN1CCC(N2CCCCC2)CC1)c1ccc(-c2ccc(CO)cc2)cc1` [Compound 1148] the figure was below 5.00; with `O=C(NCCCN1CCC(N2CCCCC2)CC1)c1ccc(-c2ccc(O)cc2)cc1` [Compound 1127], 5.00 to 6.00.

Consider `O=C(NCCCN1CCC(N2CCCCC2)CC1)c1ccc(-c2ccc(C(F)(F)F)cn2)cc1` [Compound 1100], for which the pEC50 is 6.00 to 7.00.

Staying with this assay, now noted: Hepatitis C virus, Huh7.5, 72 h.
For the compound `CN(C)CCN1CCc2c(sc(-c3cccc(F)c3)c2CNC(=O)Nc2sc3c(c2C(=O)OC(C)(C)C)CCCC3)C1` [Compound 359], the negative logarithm of the EC50 (pEC50) is above 7.00. The compound `CC(C)(C)OC(=O)c1c(NC(=O)NCc2c(-c3ccc(O)cc3)sc3c2CCNC3)sc2c1CCCC2` [Compound 256] had a pEC50 of 6.00 to 7.00.

In turn, `CCOC(=O)c1c(NC(=O)NCc2c(-n3cccc3)sc3c2CCN(CC)C3)sc(C)c1-c1ccc(F)cc1` [Compound 42] gave a pEC50 above 7.00. For the compound `CCOC(=O)c1c(NC(=O)NCc2c(-n3cccc3)sc3c2CCN(CC)C3)sc2c1CCCC2` [Compound 2], the negative-log EC50 (pEC50) is above 7.00. Take `CC(C)(C)OC(=O)c1c(NC(=O)NCc2c(-n3cccc3)sc3c2CCN(C2CCC2)C3)sc2c1CCCC2` [Compound 260]: the pEC50 is above 7.00. Compound `O=C(NCc1c(C(F)(F)F)sc2c1CCNC2)Nc1sc2c(c1C(=O)OCC(F)(F)F)CCCC2` [Compound 329] had a pEC50 above 7.00. On the same count and under the same terms, with `Cc1c(CN(C)C)sc(C(F)(F)F)c1CNC(=O)Nc1sc2c(c1C(=O)OC(C)(C)C)CCCC2` [Compound 134] the figure was above 7.00; with `CCOC(=O)c1c(NC(=O)C(=O)NCc2c(-n3cccc3)sc3c2CCN(C(=O)OC(C)(C)C)C3)sc2c1CCCC2` [Compound 85], below 5.00; with `CCOC(=O)c1c(NC(=O)NCc2c(-n3c(C)ccc3C)sc3c2CCN(CC)C3)sc2c1CCCC2` [Compound 51], above 7.00. `CCNC(=O)c1c(NC(=O)NCc2c(-n3cccc3)sc3c2CCNC3)sc2c1CCCC2` [Compound 59] showed a pEC50 above 7.00. Still for that read-out and setting: with `CCOC(=O)c1c(NC(=O)NCc2c(-n3cccc3)sc3c2CCN(CC)C3)sc2c1CCC(C)C2` (stereo not shown) [Compound 153] the figure was above 7.00.

For the compound `CCN1CCc2c(sc(-n3cccc3)c2CNC(=O)Nc2ccccc2C(=O)OC)C1` [Compound 10], the pEC50 was below 5.00.

The compound `CCOC(=O)c1c(NC(=O)NCc2c(C(F)(F)F)sc(CN(C)C)c2C)sc2c1CCCC2` [Compound 214] showed a pEC50 above 7.00. On the same count and under the same terms, in the case of `CCOC(=O)c1c(NC(=O)NCc2c(-n3cccc3)sc3c2CCN(C)C3)sc2c1CC(C)CC2C` (stereo not shown) [Compound 206] it was above 7.00; in that of `CCOC(=O)c1c(NC(=O)NCc2ccc(CN(C)C)cc2Br)sc2c1CCCC2` [Compound 93], 6.00 to 7.00; in that of `CC(C)(C)OC(=O)c1c(NC(=O)NCc2c(Br)sc3c2CCNC3)sc2c1CCC2` [Compound 224], above 7.00. In the case of `CC(C)(C)OC(=O)c1c(NC(=O)NCc2c(-n3cccc3)sc3c2CCNC3)sc2c1CCCCC2` [Compound 302], the pEC50 is above 7.00.

`CC(C)(C)OC(=O)c1c(NC(=O)NCc2c(-c3ccnc(Cl)c3)sc3c2CCNC3)sc2c1CCCC2` [Compound 308]: the negative logarithm of the EC50 (pEC50) is above 7.00. `CCc1sc2c(c1CNC(=O)Nc1sc3c(c1C(=O)OC(C)(C)C)CCCC3)CCNC2` [Compound 181] gave a negative logarithm of the EC50 (pEC50) above 7.00. As to `CCOC(=O)c1c(NC(=O)NCc2c(-n3cccc3)sc3c2CCNC3)sc2c1CCCC2` [Compound 61], the pEC50 is above 7.00.

Consider `CC(C)(C)OC(=O)c1c(NC(=O)NCc2c(-c3cccc(C(F)(F)F)c3)sc3c2CCNC3)sc2c1CCCC2` [Compound 204], for which the negative logarithm of the EC50 (pEC50) is 6.00 to 7.00. `CCOC(=O)c1c(NC(=O)NCc2c(-n3cccc3)sc3c2CCN(CC)C3)sc2c1CCCCC2` [Compound 56] showed a pEC50 above 7.00. Compound `CCOC(=O)c1c(NC(=O)NCc2c(-n3cccc3)sc3c2CCN(C)C3)sc2c1CC(C)CC2` (stereo not shown) [Compound 191] showed a pEC50 above 7.00. `O=C(NCc1c(C(F)(F)F)sc2c1CCNC2)Nc1sc2c(c1C(=O)OC1CCOC1)CCCC2` (stereo not shown) [Compound 326]: the pEC50 was above 7.00. The same measure, in the same setting: in the case of `O=C(NCc1c(-n2cccc2)sc2c1CCNC2)Nc1sc2c(c1C(=O)OC1CCCC1)CCCC2` [Compound 220] it was above 7.00.

Consider `Cc1nnc(-c2c(NC(=O)NCc3c(-n4cccc4)sc4c3CCNC4)sc3c2CCCC3)o1` [Compound 60], for which the pEC50 was 6.00 to 7.00. Compound `CCOC(=O)c1c(NC(=O)NCc2c(-n3cccc3)sc3c2CCN(CC)C3)sc2ccccc12` [Compound 34] had a negative logarithm of the EC50 (pEC50) of 6.00 to 7.00. On to `CCc1sc(NC(=O)NCc2c(-n3cccc3)sc3c2CCNC3)c(C(=O)OC(C)(C)C)c1C` [Compound 318], for which the pEC50 was 6.00 to 7.00. The compound `CCOC(=O)c1c(NC(=O)NCc2c(-n3cccc3)sc3c2CCN(CC)C3)sc2c1CC(C)CC2C` (stereo not shown) [Compound 205] gave a pEC50 above 7.00.

With `CCN1CCc2c(sc(-n3cccc3)c2CNC(=O)Nc2sc3c(c2C(=O)NCCCCNC(=O)CCCCCNC(=O)OC(C)(C)C)CCCC3)C1` [Compound 92], the negative logarithm of the EC50 (pEC50) was 5.00 to 6.00. As for `CCN1CCc2c(sc(-n3cccc3)c2CNC(=O)Nc2sc3c(c2C(=O)NCC(C)C)CCCC3)C1` [Compound 80], the pEC50 was above 7.00. Consider `CC(C)(C)OC(=O)c1c(NC(=O)NCc2c(N3CCCC3)sc3c2CCNC3)sc2c1CCCC2` [Compound 143], for which the pEC50 was above 7.00. `Cn1ccc(-c2sc3c(c2CNC(=O)Nc2sc4c(c2C(=O)OC(C)(C)C)CCCC4)CCNC3)c1` [Compound 182] showed a pEC50 above 7.00. In turn, `CCN1CCc2c(sc(-n3cccc3)c2CNC(=O)Nc2sc3c(c2C(=O)OC(C)(C)C)CCC3)C1` [Compound 114] showed a pEC50 above 7.00.

`CC(C)(C)OC(=O)c1c(NC(=O)NCc2c(C(F)(F)F)sc3c2CCNC3)sc2c1CCOC2O` (stereo not shown) [Compound 320] gave a negative logarithm of the EC50 (pEC50) above 7.00. Regarding `CCOC(=O)c1c(NC(=O)NCc2c(C(F)(F)F)sc3c2CCN(CC)C3)sc2c1CCCC2` [Compound 118], the pEC50 was above 7.00. The compound `CCOC(=O)c1c(NC(=O)C(=O)NCc2c(C(F)(F)F)sc3c2CCNC3)sc2c1CCCC2` [Compound 120] had a pEC50 of 5.00 to 6.00. Consider `CCOC(=O)c1c(NC(=O)NCc2c(-n3cccc3)sc3c2CCOC3)sc2c1CCCC2` [Compound 48], for which the negative logarithm of the EC50 (pEC50) is above 7.00.

Regarding `Cc1sc(NC(=O)NCc2c(-c3cccc(Cl)c3)sc3c2CCNC3)c(C(=O)OC2CCOC2)c1C` (stereo not shown) [Compound 357], the negative-log EC50 (pEC50) was 6.00 to 7.00. For `CCOC(=O)c1c(NC(=O)NCc2c(-c3ccoc3)sc3c2CCNC3)sc2c1CCCC2` [Compound 339], the pEC50 was above 7.00.

`CC(C)(C)OC(=O)c1c(NC(=O)NCc2c(-n3cccc3)sc3c2CCN(CCC(F)(F)F)C3)sc2c1CCCC2` [Compound 241] showed a pEC50 above 7.00.

`CCN1CCc2c(sc(C(F)(F)F)c2CNC(=O)Nc2sc(C)c(C)c2C(=O)OC(C)C)C1` [Compound 296] gave a pEC50 above 7.00.
